The NIST ThermoML archive (doi:10.1016/j.fluid.2007.04.028)
Numbers after ± are expanded uncertainties.

Settings: Fluid (supercritical or subcritical phases), Cylindrical cavity resonance method

C[Si]1(C)O[Si](C)(C)O[Si](C)(C)O[Si](C)(C)O[Si](C)(C)O1 [decamethylcyclopentasiloxane]
Settings | speed of sound [m/s]
485 K, 35.39 kPa | 101.91 ± 0.52
485 K, 43.63 kPa | 101.14 ± 0.52
485 K, 49.43 kPa | 100.67 ± 0.51
485 K, 55.24 kPa | 100.36 ± 0.51
485 K, 63.6 kPa | 99.2 ± 0.51
485 K, 64.42 kPa | 99.13 ± 0.51
485 K, 74.85 kPa | 98.38 ± 0.5
485 K, 82.92 kPa | 97.28 ± 0.5
485 K, 85.12 kPa | 97.17 ± 0.5
500 K, 22.13 kPa | 104.94 ± 0.53
500 K, 22.48 kPa | 104.92 ± 0.53
500 K, 26.3 kPa | 104.68 ± 0.53
500 K, 31.33 kPa | 104.22 ± 0.53
500 K, 32.27 kPa | 104.14 ± 0.53
500 K, 33.93 kPa | 103.96 ± 0.53
500 K, 39.9 kPa | 103.53 ± 0.53
500 K, 42.7 kPa | 103.27 ± 0.53
500 K, 47.88 kPa | 102.87 ± 0.52
500 K, 51.58 kPa | 102.58 ± 0.52
500 K, 55.42 kPa | 102.2 ± 0.52
500 K, 64.64 kPa | 101.5 ± 0.52
500 K, 64.96 kPa | 101.44 ± 0.52
500 K, 73.64 kPa | 100.81 ± 0.51
500 K, 74.95 kPa | 100.63 ± 0.51
500 K, 78.98 kPa | 100.22 ± 0.51
500 K, 85.9 kPa | 99.5 ± 0.51
500 K, 95.37 kPa | 98.56 ± 0.5
500 K, 105.42 kPa | 97.6 ± 0.5
500 K, 116.6 kPa | 96.56 ± 0.49
510 K, 34.55 kPa | 105.2 ± 0.54
510 K, 43.26 kPa | 104.68 ± 0.53
510 K, 51.27 kPa | 104.86 ± 0.53
510 K, 57.1 kPa | 103.49 ± 0.53
510 K, 62.78 kPa | 103.98 ± 0.53
510 K, 72.53 kPa | 102.37 ± 0.52
510 K, 82.51 kPa | 101.58 ± 0.52
510 K, 89.89 kPa | 100.87 ± 0.52
510 K, 92.75 kPa | 100.75 ± 0.51
510 K, 103.28 kPa | 99.89 ± 0.51
510 K, 110.69 kPa | 99.98 ± 0.51

C[Si]1(C)O[Si](C)(C)O[Si](C)(C)O[Si](C)(C)O1 [octamethylcyclotetrasiloxane]
Settings | speed of sound [m/s]
450 K, 38.9 kPa | 110.35 ± 0.45
450 K, 46.7 kPa | 109.66 ± 0.45
450 K, 57.41 kPa | 108.8 ± 0.45
450 K, 62.89 kPa | 108.3 ± 0.45
450 K, 69.33 kPa | 107.73 ± 0.44
465 K, 31.29 kPa | 113.04 ± 0.46
465 K, 32.63 kPa | 112.99 ± 0.46
465 K, 36.51 kPa | 112.75 ± 0.46
465 K, 40.99 kPa | 112.32 ± 0.46
465 K, 46.84 kPa | 111.94 ± 0.46
465 K, 47.85 kPa | 111.91 ± 0.46
465 K, 49.18 kPa | 111.72 ± 0.46
465 K, 57.21 kPa | 111.2 ± 0.46
465 K, 58.99 kPa | 110.98 ± 0.46
465 K, 61.46 kPa | 110.82 ± 0.46
465 K, 68.51 kPa | 110.33 ± 0.45
465 K, 70.69 kPa | 110.06 ± 0.45
465 K, 73.59 kPa | 109.87 ± 0.45
465 K, 74.87 kPa | 109.83 ± 0.45
465 K, 77.48 kPa | 109.53 ± 0.45
465 K, 81.72 kPa | 109.28 ± 0.45
465 K, 87.87 kPa | 108.72 ± 0.45
465 K, 92.89 kPa | 108.29 ± 0.45
465 K, 97.68 kPa | 107.96 ± 0.44
465 K, 101.01 kPa | 107.53 ± 0.44
465 K, 105.11 kPa | 107.28 ± 0.44
465 K, 106.95 kPa | 107.18 ± 0.44
465 K, 111.4 kPa | 106.69 ± 0.44
465 K, 116.93 kPa | 106.3 ± 0.44
465 K, 121.67 kPa | 105.76 ± 0.43
465 K, 123.48 kPa | 105.66 ± 0.43
480 K, 42.7 kPa | 114.02 ± 0.47
480 K, 54.67 kPa | 113.2 ± 0.46
480 K, 65.08 kPa | 112.48 ± 0.46
480 K, 71.3 kPa | 112.04 ± 0.46
480 K, 85.5 kPa | 111.07 ± 0.46
480 K, 92.46 kPa | 110.5 ± 0.45
480 K, 109.21 kPa | 109.24 ± 0.45
480 K, 118.88 kPa | 108.49 ± 0.45
480 K, 129.21 kPa | 107.67 ± 0.44
480 K, 140.39 kPa | 106.77 ± 0.44
480 K, 152.36 kPa | 105.77 ± 0.43
480 K, 165.42 kPa | 104.64 ± 0.43
495 K, 27.45 kPa | 117.14 ± 0.48
495 K, 36.2 kPa | 116.66 ± 0.48
495 K, 47.54 kPa | 115.98 ± 0.47
495 K, 143.41 kPa | 109.74 ± 0.45
495 K, 159.7 kPa | 108.43 ± 0.45
495 K, 160.4 kPa | 108.39 ± 0.45
495 K, 174.53 kPa | 107.35 ± 0.44
495 K, 186.64 kPa | 106.44 ± 0.44
495 K, 198.61 kPa | 105.49 ± 0.43
495 K, 224.52 kPa | 103.41 ± 0.43
